Experimental data published in EP0707004A1, “1-Arylalcenyl 4-arylmethylpiperazinderivatives, process for their preparation and pharmaceutical composition containing them” (ADIR ET COMPAGNIE, priority 1994, dated 1996).

Test system: hyperactivité induite par la N-allylnormétazocine
Assay: Antagonism of N-allylnormetazocine-induced hyperactivity
Type: in vivo
Conditions: dose 32 mg.kg⁻¹; rats; N-allylnormetazocine 50 mg/kg subcutaneous
Source text: Ce test a été mis au point par Snyder S.H. et al (J. Neuropsychiatry, 1989, 1 : 7-15). La N-allylnormetazocine ((+) SKF 10047) induit un comportement psychotique chez l'homme et est le prototype d'agoniste pour les récepteurs σ.
La mesure de l'hyperactivité induite par ce produit est donc utilisée comme modèle alternatif pour détecter l'activité antipsychotique des composés agissant sur les récepteurs σ.
Un groupe de 12 rats est traité avec le composé à tester avant l'administration sous-cutanée de 50 mg/kg de la N-allylnormetazocine. 30 minutes plus tard, les animaux sont placés dans un actimètre pendant 30 minutes.
L'halopéridol est utilisé comme composé de référence.

With `CCC(=Cc1ccccc1)C(=O)N1CCN(Cc2ccccc2)CC1` [Exemple 9, 1-(3-phényl-2-éthylprop-2-ènoyl)-4-benzylpipérazine] the “antagonisme de l'hypermotilité induite par la N-allylnormétazocine” value was 42%.
